Assay results from patent US12304909B2, “Compounds and their use in therapy” (IMPERIAL COLLEGE INNOVATIONS LIMITED, priority 2018, dated 2025).

Experiments:
[1] = Rat half life in vivo; settings: plasma; rat oral half-life; male Sprague-Dawley rats, 3 mg/kg oral gavage; read-out: Rat or mouse t ½ (rat) (converted)
Description: Example Compound 1, and Comparative Examples 2 and 3 were tested for metabolic stability in male Sprague-Dawley rats. Comparative Example 5 was tested for metabolic stability in male CD-1 mice. Compounds having good metabolic stability in rats or mice are expected to be especially useful as agents for preventing and/or treating cancer, by having a long half-life in human patients.
Male Sprague-Dawley rats were fasted for 4 h before dosing. Groups of 3 rats were dosed with Example Compound 1, Comparative Example 2, or Comparative Example 3 • (i) intravenously at a dose of 1 mg/kg using a dose volume 2 mL/kg where the animals are anaesthetized using 3% v/v isoflurane:oxygen mixture and dose administered through lateral tail vein; or • (ii) orally by gavage (OG) at a dose of 3 mg/kg using a dose volume 5 ml/kg to conscious animals.
˜100 μL blood sample were collected after 5 min, 15 min, 30 min, 1 h, 2 h, 4 h, 8 h and 24 h (intravenous) and 15 min, 30 min, 1 h, 2 h, 4 h, 8 h and 24 h (oral) and transferred to heparinized capillary tubes, and subsequently into 0.5 mL microcentrifuge tubes. All blood samples are processed for plasma by centrifugation at 1640×g for 5 min at 4° C. within half an hour of collection. Plasma samples were stored at −20° C. until all samples were collected. All samples were mixed with ice-cold acetonitrile containing an internal standard (IS) in 1:4 v/v and centrifuged at 4000 rpm for 15 min at 15° C. Supernatant was then half diluted in water and loaded for LCMS/MS analysis. Analyte peak area/IS peak area (the ratio) was considered for further data analysis as described below.
Calibration curve and QC samples: Compound stock was prepared and further serial dilutions were carried out. The samples were spiked in blank plasma (1:50). Calibration curve ranged from 1 to 1250 ppb. Three quality control samples were also prepared-high QC (HQC), Mid QC (MQC and Low QC (LQC).

[2] = Rat hepatocyte half life; format: in vitro ADME, Sprague-Dawley rats; settings: pooled cryopreserved rat hepatocytes, pH 7.4; pooled male Sprague-Dawley rat hepatocytes; read-out: Rat Hepatocyte t ½
Description: Example Compound 1 was tested for metabolic stability in rat metabolic assays using hepatocytes derived from pooled male Sprague-Dawley rats. Comparative Examples 2, 3 and 4 were also tested in the same assay. Compounds having good metabolic stability in the assay are expected to be especially useful as agents for preventing and/or treating cancer, by having a long half-life in human patients.
Frozen pooled rat hepatocytes obtained from LifeTechnologies were thawed and purified according to the manufacturer's instructions. The test compound (4 mM) in DMSO was diluted with acetonitrile to provide a 100 μM sub-stock then further diluted with pH7.4 Krebs-Henseleit buffer supplemented with CaCl2), NaHCO3, HEPES, fructose and glycine) to provide a 2 μM working solution. 25 μL of working solution was incubated at 37° C., treated with 25 μL of rat hepatocyte suspension (containing 1×10^6 cells/mL) and incubated at 37° C. with 5% CO2 level at 95% relative humidity. Wells were incubated for an appropriate time (0, 15, 30, 45, 60 and 75 min) then quenched with 250 μL of acetonitrile containing reference standards diltiazem, 7-ethoxycoumarin and propranolol). The plates were shaken, sonicated for 5 min then cooled to 4° C. until all sampling was complete. All plates were centrifuged at 4000 rpm for 20 min to pellet the debris. 110 μl supernatant was diluted 110 μL water and quantitated using LC-MS/MS.
The results were used to calculate the % Remaining of the test compound at time point t=100×˜[(AUC at time point t)/(AUC at T=0)]. A linear regression curve was fitted to a plot of natural logarithm (In) of AUC against time. The T-half (min)=0.693/slope

[3] = tested on: MRC5 cells; assay: Metabolic activity assay (MTS assay), MRC5; format: cell-based, human
Description: Example NMT inhibitors of the present invention were tested for activity in an in vitro metabolic activity assay using the human cell line MRC5. Comparative Examples 1, 2, 3, 4, 5 and 6 were also tested in the same metabolic activity assay. Compounds having activity in inhibiting metabolic activity in the assay are expected to be useful as agents for preventing and/or treating cancer, by virtue of being inhibitors of human NMT1 and/or NMT2.
MRC5 cells (obtained from Dr David Mann's group, Imperial College; cell type: fibroblasts cells which derive from normal lung tissue) were grown in DMEM media (supplemented with 10% FBS) and were seeded in a 96-well plate, 24 h prior to treatment. Cell suspensions were prepared by adjusting the cell density to the appropriate concentration (as stated in the Table 1 below) and 50 μL of the cell suspension was transferred to wells B-G in columns 2-11 of a 96-well plate.
100 μL of growth media (DMEM media) containing 0.2% DMSO was added to wells B-G in columns 2 and 11 as positive controls, and 100 μl of growth media containing Puromycin (3 μg/mL; final concentration in the plate 2 μg/mL) was added to wells B-G in column 3 as a negative control. Seven concentrations of NMT inhibitor stock solution were prepared for each Example (Example 1 and 2) and each Comparative Example (Comparative Examples 1, 2, 3, 4, 5 and 6) tested (same final percentage of DMSO, dilution factor=3 starting from 15 μM or 150 μM). 100 μL of inhibitor stock solution was added to wells B-G in columns 4-10 of a 96-well plate (final concentration of Example compound or Comparative Example compound in the plate starting from 10 μM or 100 μM; total volume in each well was 150 μL). The plate was incubated at 37° C. with 5% CO2 level.
After 72 h, 20 μL MTS reagent (Promega, prepared according to the supplier protocol) was added to each well of the 96-well plate. The plate was incubated at 37° C. for 2 h and the absorbance per well was measured at 490 nm with an EnVision plate reader. The average absorbance value of the negative control (Puromycin-treated cells) was subtracted from each value and the metabolic activity was calculated as a percentage relative to the positive control (DMSO-treated cells). EC50 values were calculated using GraphPad.

Structure (SMILES)	half-life [1] [h]	half-life at 1 µM [2] [h]	EC50 ([3]; Homo sapiens, MRC5, 72 h) [µM]	EC50 ([3]; 72 h) [µM]
CNC(=O)c1nn(C)c(C)c1CCOc1cc(F)ccc1-c1ccc2ncc(CCN)n2c1 [Comparative Example 2, 4-(2-{2-[3-(2-aminoethyl)imidazo[1,2-a]pyridin-6-yl]-5-fluorophenoxy}ethyl)-N,1,5-trimethyl-1H-pyrazole-3-carboxamide]	8.3	1.35	> 6.8	
Cc1c(CCOc2cc(Cl)ccc2-c2ccc3ncc(CCN)n3c2)c(C(=O)N(C)C)nn1C [Example Compound 1, 4-(2-{2-[3-(2-aminoethyl)imidazo[1,2-a]pyridin-6-yl]-5-chlorophenoxy}ethyl)-N,N,1,5-tetramethyl-1H-pyrazole-3-carboxamide]	7.1	1.33		0.013
CNCCc1cnc2ccc(-c3ccc(F)cc3OCCc3c(C)nn(C)c3C)cn12 [Comparative Example 3, [2-(6-{4-fluoro-2-[2-(1,3,5-trimethyl-1H-pyrazol-4-yl)ethoxy]phenyl}imidazo[1,2-a]pyridin-3-yl)ethyl](methyl)amine]	4.5	0.767	5.4	
